Results on 1 molecule are retold here after patent publication US20220184091A1, “Methods of Treating Cancer with Chk1 Inhibitors” (Sierra Oncology, Inc., priority 2019, published 2022).

Series [1] can be described thus: Phase 1 clinical study, SRA737 in combination with gemcitabine, dose escalation. The conditions noted are these: human, mean. It counts as in vivo. As for the experimental part:
A Phase 1 clinical trial was conducted in ‘all comers,’ i.e. no genetic selection was performed, to establish safety, tolerability and pharmacokinetics for SRA737 administered in combination with gemcitabine (“Dose Escalation Phase”). Cohorts consisting initially of a single subject received escalating doses of SRA737, starting in Cohort 1 with 40 mg/day administered orally on days 2, 3, 9, 10, 16, and 17 of each 28-day cycle. Cohorts also received various doses of gemcitabine, starting in Cohort 1 with 300 mg/m^2/day administered IV over 30 minutes on days 1, 8, and 15 of each 28-day cycle.
FIG. 5 presents a summary of dosing amounts for the cohorts tested. In the Dose Escalation Phase, a total of 55 subjects received SRA737 in 13 dose escalation cohorts at doses of 40 to 600 mg SRA737 combined with LDG doses of 50 to 300 mg/m^2.

For another series, the system named is SNU-C1. The series is described as follows: Cell viability, colon cancer line SNU-C1. It counts as cell-based. The conditions noted are these: Homo sapiens.
In the next series the test system is SCLC cell lines. As to the kind of experiment: CellTiter-Glo cell viability assay, SCLC cell line panel. It counts as cell-based, human and murine. Conditions: 96 h. On the procedure: SCLC cell lines were incubated with dimethyl sulfoxide (vehicle control), SRA737 or Gemcitabine for 96 hours at nine distinct concentrations, with the maximum dose being 10 μM. A CellTiter-Glo luminescent cell viability assay (Promega) was performed after 96 hours of treatment as per the manufacturer's specifications. IC50 values were estimated using Drexplorer, as previously described (Tong P, Coombes K R, Johnson F M, Byers L A, Diao L, Liu D D, Lee J J, Heymach J V, Wang J. drexplorer: A tool to explore dose-response relationships and drug-drug interactions. Bioinformatics. 2015 May 15; 31(10):1692-4.)
To investigate the in vitro activity of SRA737, a panel of 51 SCLC cell lines, including one murine derived model, and a panel of NSCLC, pancreatic, colon and bladder cancer cell lines were screened.
Background: In ATP-based viability assays light output follows the ATP content of the culture.

For the next series, the system named is PD-L1. The series is described as follows: Flow cytometry of surface PD-L1 in SCLC cell lines. The series is classed as cell-based. The conditions noted are these: all SCLC cell lines tested; 1 μM for 72 hours. On the procedure:
Data presented as mean±SD and p values by t-test ***p<0.001.
Single-cell suspensions were prepared and stained according to standard protocols for flow cytometry with antibodies. For intracellular staining, cells were fixed and permeabilized with BD Cytofix/Cytoperm (BD Biosciences). The data were acquired on a Fortessa or Calibur platform (BD Biosciences) and analyzed with FlowJo software (version 7.6; Tree Star). For analyzing the abundance and the function of CD4+ or CD8+ TILs, single-cell suspensions were prepared from tumors and spleen and stained; the staining of spleen cells was used as the reference of lymphocyte gating, then CD3+ cells were gated, and then CD4+ or CD8+ population was analyzed.
In general terms: In flow cytometry, cells or beads pass a laser one at a time.

Series [2] in a line: Excretion of SRA737 in mice. The conditions noted are these: 24-hour collection. It counts as in vivo, mouse. As for the experimental part: The excretion of SRA737 has been studied in mice and rats administered SRA737 at either 5 mg/kg IV or 10 mg/kg orally. Urine and feces were collected for a 24-hour period after dosing. In mice, renal excretion of intact SRA737 was consistently low (less than 10% of dose) after both oral and IV administration. Following IV administration of SRA737, less than 8% of the dose was recovered as intact drug in the feces while after oral administration this figure was less than 3%. Excretion of intact SRA737 was lower in the rat than in the mouse with <1% of dose excreted renally over 24 hours and less than 1.5% of dose excreted into the feces over 24 hours.

In another series the test system is IFNβ, CXCL10 and CCL5. As to the kind of experiment: qPCR of IFNβ, CXCL10 and CCL5 mRNA in SCLC cell lines. The series is classed as cell-based. The conditions noted are these: 24 and 72 hours. As for the experimental part: “Con” indicates control. Data presented as mean±SD and p values by t-test ***p<0.001.
Real-time PCR was done using SYBR Select Master Mix (Life Technologies, cat #4472908) according to the manufacturer's protocol. Primers were purchased from Sigma Aldrich, Inc. Triplicate PCR reactions were run on ABI (7500 Fast Real Time PCR System). The comparative Ct method using the average 2ΔΔCT value for each set of triplicates was used, and the average of the biological replicates was calculated. Negative controls were included for every primer set, and GAPDH was used as the […].

The test system of series [3] is cryopreserved hepatocytes. The series is described as follows: Rank order of stability in cryopreserved hepatocytes across species. It counts as in vitro ADME, human, mouse, rat, dog, minipig and monkey. Conditions: 10 μM, up to 4 hours. As for the experimental part: The formation of SRA737-related metabolites was determined in cryopreserved hepatocytes from human, mouse, rat, dog, minipig and monkey samples after incubation with SRA737 at a nominal concentration of 10 μM for up to 4 hours. […] In the human hepatocyte preparation, approximately 67% of the parent remained after 4 hours of incubation compared to 75% and 7% in the rat and minipig preparations, respectively. Eight human SRA737 metabolites were observed. All SRA737 metabolites formed by human hepatocytes were also formed by monkey hepatocytes. Six metabolites were present at equal or greater abundance in the monkey.

The mark [4] stands for this setting: 600 mg, Day 10, combination with gemcitabine.

On to `N#Cc1cnc(Nc2cc(NCC3CNCCO3)c(C(F)(F)F)cn2)cn1` (centres unmarked) [SRA737, 5-[[4-[[morpholin-2-yl]methylamino]-5-(trifluoromethyl)-2-pyridyl]amino]pyrazine-2-carbonitrile], for which, in series [1] (40 mg, Day −7), the AUC0-24 amounted to 637 ng·h/mL. In addition, the Cmax was 146 ng/mL in series [1] (80 mg, Day −7); 995 ng/mL in series [1] (300 mg, Day −7); 2,109 ng/mL in series [1] (setting [4]). In series [1] (setting [4]), the AUC0-12 is on record as 11,860 ng · h/mL. The T1/2 in series [1] (600 mg, Day −7) is 11.1 h. Besides, the IC50 in the series with SNU-C1 is 1300 nM; with SCLC cell lines (SCLC cell lines classified resistant (n=35)) it was > 5 µM; in the series with SCLC cell lines (SCLC cell lines classified sensitive (n=15)) it was < 5 µM. For the same molecule, the “cell surface PD-L1 expression” value with PD-L1 was “significantly increased”. The “dose recovered as intact drug in the feces” value is on record as “less than 8 % of dose” in series [2] (IV administration) and “less than 3 % of dose” in series [2] (oral administration). Besides, the “IFNβ, CXCL10 and CCL5 (targets of IRF3)” value in the series with IFNβ, CXCL10 and CCL5 is given as “activated”. The “rank order of stability from most stable to least stable” value in series [3] is given as “rat≈mouse >monkey≈human >>dog >>minipig”.

What is called Cmax is the peak of the concentration-time curve. Broadly, the IC50 is the concentration at which inhibition is half-maximal. A high value points to lower potency.
